Reference: patent US12595251B2, “Amidines and amidine analogs for the treatment of bacterial infections and potentiation antibiotics” (GEORGIA STATE UNIVERSITY RESEARCH FOUNDATION, INC., priority 2018, dated 2026)
Where two headings read alike, the source gives them in different places.

Columns and labels:
MRSA [1] = assay: MIC of compounds against MRSA (OD600, 48 h); assay type: cell-based; settings: Staphylococcus aureus; for MIC: MIC = 90% growth inhibition, compound alone, 48 h; for inhibition at 12 µM: compound alone at 12 μM, NA=no activity, read-out: Growth inhibition of MRSA at 12 μM
Method: Bacteria were then cultured with varying concentration of the compounds shown below for 48 hours, and then bacterial density was measured based on OD600. The minimum inhibitory concentration (MIC, 90% growth inhibition) was calculated for each compound, as shown in Table 4 (NA=no activity; --=not measured).

B. subtilis = assay: Sensitization of B. subtilis to erythromycin (sensitization fold from IC90, OD600, 20 h); assay type: cell-based, Bacillus subtilis; settings: NA=no activity; for SF (B. subtilis) at 6 μM / SF (B. subtilis) at 12 μM: erythromycin; for SF (B. subtilis) at 6 μM: compound at 6 μM; for SF (B. subtilis) at 12 μM: compound at 12 μM; for SF (B. subtilis): sensitization fold = IC90 of erythromycin without/with compound, compound concentration not given, T=toxic
Method: (§1) E. coli bacteria were cultured in Miller's broth at 37° C. overnight prior to treatment. B. subtilis bacteria were cultured in nutrient broth at 37° C. overnight prior to treatment. […] Bacterial density was measured based on OD600.

E. coli = assay: Sensitization of E. coli to erythromycin (sensitization fold from IC90, OD600, 20 h); assay type: cell-based, Escherichia coli; settings: erythromycin, NA=no activity; for SF (E. coli) at 12.5 μM: compound at 12.5 μM
Method: as §1

MRSA [2] = assay: Sensitization of MRSA to erythromycin (sensitization fold from IC90); assay type: cell-based, Staphylococcus aureus; settings: for SF (MRSA) at 6 μM: compound at 6 μM; for SF (MRSA) at 12 μM: compound at 12 μM
Method: MRSA bacteria were cultured in nutrient broth at 37° C. overnight prior to treatment. […] Bacterial density was measured based on OD600.

wild-type E. coli = assay: Sensitization of wild-type E. coli toward antibiotics (MIC of antibiotic with/without sensitizer); assay type: cell-based, Escherichia coli; settings: wild-type E. coli; for MIC: Escherichia coli, antibiotic alone, read-out: MIC of AB only; for MIC of AB with Compound C (5 μg/ml) / FIC: antibiotic plus Compound C 5 μg/ml; for FIC: fractional inhibitory concentration
Method: Bacteria were cultured with the antibiotic at various concentrations in the presence or absence of bacterial sensitizer for 24 hours at 37° C. Bacterial growth density was determined by measuring OD600 (absorbance measured at a wavelength of 600 nm). […]
The formula for calculating FIC is shown below: […]

[3] = system: NDM-1 over-expressing E. coli; assay: microbe, parasite or virus in culture; assay type: cell-based, Escherichia coli; settings: for MIC: Escherichia coli; for Sensitization fold: MIC of antibiotic only / MIC with Compound C 5 μg/ml
[4] = antibiotic alone, read-out: MIC of AB only
[5] = antibiotic plus Compound C 5 μg/ml

## Cc1cc(COc2ccc(C(=N)N)cc2F)cc(COc2ccc(C(=N)N)cc2F)c1 [drawing 846]
MRSA [1]
  MIC: 12 µM
MRSA [1]; read-out: Growth inhibition of MRSA at 6 μM, compound alone at 6 μM, NA=no activity
  inhibition at 6 µM: 20%

## COc1cc(C(=N)N)ccc1OCc1cc(COc2ccc(C(=N)N)cc2OC)cc(C(C)(C)C)c1 [drawing 741]
B. subtilis
  SF (B. subtilis) at 6 μM: 2 fold
  SF (B. subtilis) at 12 μM: 8 fold
E. coli; compound at 6 μM
  SF (E. coli) at 6 μM: 2 fold
E. coli
  SF (E. coli) at 12.5 μM: 8 fold

## Cc1cc(COc2ccc(C3=NCCN3)cc2)cc(COc2ccc(C3=NCCN3)cc2)c1 [drawing 723]
B. subtilis
  SF (B. subtilis): >4

## Cc1cc(CSc2ccc(C(=N)N)cc2)cc(CSc2ccc(C(=N)N)cc2)c1 [drawing 744]
B. subtilis
  SF (B. subtilis) at 6 μM: 32 fold
E. coli
  SF (E. coli) at 12.5 μM: 32 fold

## Cc1cc(OCc2ccc(C(=N)N)cc2)cc(OCc2ccc(C(=N)N)cc2)c1 [drawing 736]
B. subtilis
  SF (B. subtilis) at 12 μM: 32-fold at 12 μM
E. coli; compound at 25 μM
  SF (E. coli) at 25 μM: 32-fold at 25 μM

## CC(C)NC(=N)c1ccc(OCc2cccc(COc3ccc(C(=N)NC(C)C)cc3F)c2F)c(F)c1 [drawing 840]
MRSA [2]
  SF (MRSA) at 6 μM: 8 fold
MRSA [2]; NA=no activity
  SF (MRSA) at 12 μM: 8-16 fold
MRSA [1]
  inhibition at 12 µM: 30%

## Cc1cc(CCc2ccc(C(=N)N)cc2)cc(CCc2ccc(C(=N)N)cc2)c1 [drawing 838]
MRSA [2]; compound at 3 μM
  SF (MRSA) at 3 μM: 16-fold at 3 μM
MRSA [1]
  MIC: 12 µM

## N=C(N)c1ccc(OCc2ccc(COc3ccc(C(=N)N)cc3)cc2)cc1 [drawing 728]
B. subtilis
  SF (B. subtilis): <2

## CO[C@@H]1[C@@H](OC(N)=O)[C@@H](O)[C@H](Oc2ccc3c(O)c(NC(=O)c4ccc(O)c(CC=C(C)C)c4)c(=O)oc3c2C)OC1(C)C [Novobiocin, novobiocin]
wild-type E. coli
  MIC: 100 µg/mL
  MIC of AB with Compound C (5 μg/ml): 1.5 µg/mL
  FIC: 0.12
[3]; [4]
  MIC: 50 µg/mL
[3]; read-out: MIC of AB with Compound C (5 μg/ml), antibiotic plus Compound C 5 μg/ml
  MIC: 1.6 µg/mL
[3]
  Sensitization fold: 32
[3]; [5]
  FIC: 0.13

## Cc1cc(COc2ccc(C3=NCCCN3)cc2)cc(COc2ccc(C3=NCCCN3)cc2)c1 [drawing 842]
MRSA [2]; NA=no activity
  SF (MRSA) at 12 μM: 4 fold
MRSA [2]; compound at 25 μM, NA=no activity
  SF (MRSA) at 25 μM: 8 fold

## Cc1cc(COc2ccc(C(=N)N)cc2)cc(COc2ccc(C(=N)N)cc2)c1 [drawing 834]
MRSA [2]
  SF (MRSA) at 6 μM: 32-fold at 6 μM
MRSA [1]
  MIC: 25 µM

## COc1cc(C(=N)N)ccc1OCc1cc(COc2ccc(C(=N)N)cc2OC)cc(C(C)(C)C)c1 [drawing 843]
MRSA [1]
  MIC: 12 µM

## O=C(N[C@H](CO)[C@H](O)c1ccc([N+](=O)[O-])cc1)C(Cl)Cl [Chloramphenicol, chloramphenicol]
wild-type E. coli; 24 h
  MIC: 12.5 µg/mL
wild-type E. coli
  MIC of AB with Compound C (5 μg/ml): 1.5 µg/mL
  FIC: 0.22
[3]; [4]
  MIC: 6.25 µg/mL
[3]
  Sensitization fold: 8
[3]; [5]
  FIC: 0.22
  MIC of AB with Compound C (5 μg/ml): 0.8 µg/mL

## Cc1cc(COc2cccc(C(=N)N)c2)cc(COc2cccc(C(=N)N)c2)c1 [drawing 845]
MRSA [2]; compound at 12.5 μM
  SF (MRSA) at 12.5 μM: 4-fold at 12.5 μM
MRSA [1]
  MIC: 25 µM
MRSA [1]; compound alone at 12.5 μM, read-out: Growth inhibition of MRSA at 12.5 μM
  inhibition at 12.5 µM: 30%

## COc1cc(C(=N)N)ccc1OCc1cc(C)cc(COc2ccc(C(=N)N)cc2OC)c1 [drawing 836]
MRSA [2]
  SF (MRSA) at 6 μM: 2-4 fold
MRSA [2]; NA=no activity
  SF (MRSA) at 12 μM: 8-16 fold
MRSA [1]
  MIC: 25 µM
  inhibition at 12 µM: 10%
